Test results as given in ChEMBL document CHEMBL1201862, “PubChem BioAssay data set” (2004).
Calls of active or inactive are those of the source.

Key:
[1] = restored growth of temperature-sensitive Burl-1 yeast – whole organism, S. cerevisiae, Burl-1 ts mutant, luminescence, counter-screen for SUMOylation pathway inhibitor project, dose response (AID 463199); type: functional
[2] = biological target: Dual specificity protein kinase CLK1 (Homo sapiens, UniProt P49759); experiment: inhibition of human CLK1 activity – biochemical, cherry-picked samples, selectivity assay for Dyrk1A inhibitor project, dose response (AID 588811)
Chain of Dual specificity protein kinase CLK1 (P49759 whole entry): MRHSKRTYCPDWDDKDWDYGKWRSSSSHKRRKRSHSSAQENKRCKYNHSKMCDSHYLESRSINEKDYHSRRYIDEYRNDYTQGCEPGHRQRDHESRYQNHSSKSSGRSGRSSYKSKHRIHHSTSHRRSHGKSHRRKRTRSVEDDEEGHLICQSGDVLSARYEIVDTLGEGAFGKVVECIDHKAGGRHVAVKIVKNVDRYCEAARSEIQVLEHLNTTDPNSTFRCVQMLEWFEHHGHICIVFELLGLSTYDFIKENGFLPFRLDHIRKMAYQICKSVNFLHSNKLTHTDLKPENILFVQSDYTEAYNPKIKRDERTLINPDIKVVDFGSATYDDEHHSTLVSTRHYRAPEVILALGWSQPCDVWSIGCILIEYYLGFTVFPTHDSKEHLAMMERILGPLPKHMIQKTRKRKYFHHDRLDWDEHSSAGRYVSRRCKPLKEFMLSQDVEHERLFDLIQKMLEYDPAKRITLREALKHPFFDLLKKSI

[3] = biological target: Dual specificity tyrosine-phosphorylation-regulated kinase 1A (Rattus norvegicus, UniProt Q63470); type: biochemical, Homo sapiens
[4] = biological target: Mu-type opioid receptor (Homo sapiens, UniProt P35372); experiment: (§1) Counterscreen for agonists of heterodimerization of the mu 1 (OPRM1) and delta 1 (OPRD1) opioid receptors: Luminescence-based cell-based high throughput dose response assay to identify agonists of OPRM1 homodimerization.; type: functional
Chain of Mu-type opioid receptor (P35372 whole entry): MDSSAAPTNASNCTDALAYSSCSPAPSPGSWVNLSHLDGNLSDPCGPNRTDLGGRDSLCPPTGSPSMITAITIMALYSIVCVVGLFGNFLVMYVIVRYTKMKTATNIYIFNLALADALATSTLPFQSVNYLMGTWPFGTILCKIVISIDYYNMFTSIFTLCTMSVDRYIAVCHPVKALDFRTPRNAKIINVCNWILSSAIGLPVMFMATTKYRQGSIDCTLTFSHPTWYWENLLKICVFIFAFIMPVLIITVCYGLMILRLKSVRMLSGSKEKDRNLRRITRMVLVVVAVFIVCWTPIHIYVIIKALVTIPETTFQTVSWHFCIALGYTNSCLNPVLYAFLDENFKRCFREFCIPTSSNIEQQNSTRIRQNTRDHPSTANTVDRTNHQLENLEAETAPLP

[5] = biological target: T1, Short transient receptor potential channel 4 (Mus musculus, UniProt Q9QUQ5); experiment: calcium entry via TRPC4 opening agents – cell-based, HEK293 TRPC4/mu-opioid, Fluo-4 calcium, dose response (AID 434937); type: functional
T1 sequence (Q9QUQ5 whole entry): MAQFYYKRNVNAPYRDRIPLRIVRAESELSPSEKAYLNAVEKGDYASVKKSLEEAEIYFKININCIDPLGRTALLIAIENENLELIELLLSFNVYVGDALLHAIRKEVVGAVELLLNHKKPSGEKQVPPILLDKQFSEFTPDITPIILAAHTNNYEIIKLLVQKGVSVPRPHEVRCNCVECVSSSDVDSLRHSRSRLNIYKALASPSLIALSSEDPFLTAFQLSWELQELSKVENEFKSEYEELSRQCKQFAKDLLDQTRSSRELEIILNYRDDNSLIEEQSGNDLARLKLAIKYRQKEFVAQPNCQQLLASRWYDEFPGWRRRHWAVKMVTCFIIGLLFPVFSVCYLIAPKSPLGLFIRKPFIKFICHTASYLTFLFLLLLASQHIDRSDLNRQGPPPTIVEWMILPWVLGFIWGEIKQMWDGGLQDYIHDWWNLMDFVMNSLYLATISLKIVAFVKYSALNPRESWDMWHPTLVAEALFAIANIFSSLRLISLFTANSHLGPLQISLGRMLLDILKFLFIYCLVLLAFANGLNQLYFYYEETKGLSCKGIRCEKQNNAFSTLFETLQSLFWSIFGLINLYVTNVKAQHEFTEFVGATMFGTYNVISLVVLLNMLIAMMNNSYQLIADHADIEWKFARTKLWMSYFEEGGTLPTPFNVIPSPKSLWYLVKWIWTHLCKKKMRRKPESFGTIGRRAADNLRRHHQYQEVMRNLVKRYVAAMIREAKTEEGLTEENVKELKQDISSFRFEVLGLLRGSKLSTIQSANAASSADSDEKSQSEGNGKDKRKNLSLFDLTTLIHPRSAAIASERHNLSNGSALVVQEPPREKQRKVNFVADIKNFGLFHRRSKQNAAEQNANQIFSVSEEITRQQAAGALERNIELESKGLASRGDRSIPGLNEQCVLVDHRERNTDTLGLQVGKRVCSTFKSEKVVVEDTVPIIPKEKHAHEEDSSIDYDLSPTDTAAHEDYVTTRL

[6] = biological target: 5-hydroxytryptamine receptor 5A (Homo sapiens, UniProt P47898); experiment: Counterscreen for agonists of OPRM1-OPRD1 heterodimerization: luminescence-based cell-based high throughput dose response assay to identify agonists of 5-hydroxytryptamine (serotonin) 5A receptor (HTR5A). [Related pubchem assays (depositor defined):AID504326, AID504355, AID504692, AID504904, AID504905]; type: functional
Chain of 5-hydroxytryptamine receptor 5A (P47898 whole entry): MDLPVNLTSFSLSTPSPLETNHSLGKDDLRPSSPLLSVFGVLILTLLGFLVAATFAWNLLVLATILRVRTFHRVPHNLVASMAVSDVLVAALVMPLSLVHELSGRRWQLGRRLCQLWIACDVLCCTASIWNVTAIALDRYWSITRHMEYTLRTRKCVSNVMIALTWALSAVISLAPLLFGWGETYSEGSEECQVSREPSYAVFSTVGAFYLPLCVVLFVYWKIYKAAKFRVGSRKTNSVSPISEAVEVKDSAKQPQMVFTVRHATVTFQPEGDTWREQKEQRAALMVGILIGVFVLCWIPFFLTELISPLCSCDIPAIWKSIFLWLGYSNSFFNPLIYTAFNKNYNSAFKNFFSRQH

[7] = biological target: Delta-type opioid receptor (Homo sapiens, UniProt P41143); experiment: as §1, with “of OPRD1” for “of OPRM1”, “homodimerization. [Related pubchem assays (depositor defined):AID504326, AID504355, AID504692, AID504904, AID504905]” for “homodimerization.”; type: functional
Chain of Delta-type opioid receptor (P41143 whole entry): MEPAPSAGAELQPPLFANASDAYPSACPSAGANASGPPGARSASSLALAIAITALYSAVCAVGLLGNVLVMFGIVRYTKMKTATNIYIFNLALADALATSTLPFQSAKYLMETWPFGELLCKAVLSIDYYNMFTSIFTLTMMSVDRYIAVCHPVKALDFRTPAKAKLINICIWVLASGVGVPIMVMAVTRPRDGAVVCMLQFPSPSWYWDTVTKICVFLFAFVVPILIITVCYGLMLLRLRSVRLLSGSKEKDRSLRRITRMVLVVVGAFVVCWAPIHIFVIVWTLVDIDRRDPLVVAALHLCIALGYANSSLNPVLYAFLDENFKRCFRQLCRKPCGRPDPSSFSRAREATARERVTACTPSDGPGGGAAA

[8] = biological target: T1, Short transient receptor potential channel 4; experiment: SAR Analysis for the identification of selective inhibits of the transient receptor potential cation channel C4 (TRPC4): Automated Electrophysiology. [Related pubchem assays (depositor defined):AID2256]; type: functional
[9] = biological target: T1, Short transient receptor potential channel 4; experiment: block of DAMGO-driven TRPC4 calcium entry – cell-based, HEK293 TRPC4/mu-opioid, Fluo-4 calcium, dose response (AID 434942); type: functional;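 also: potency of inhibitors blocking the TRPC4 calcium response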
[10] = biological target: Cytochrome P450 2C9 (Homo sapiens, UniProt P11712)
Chain of Cytochrome P450 2C9 (P11712 whole entry): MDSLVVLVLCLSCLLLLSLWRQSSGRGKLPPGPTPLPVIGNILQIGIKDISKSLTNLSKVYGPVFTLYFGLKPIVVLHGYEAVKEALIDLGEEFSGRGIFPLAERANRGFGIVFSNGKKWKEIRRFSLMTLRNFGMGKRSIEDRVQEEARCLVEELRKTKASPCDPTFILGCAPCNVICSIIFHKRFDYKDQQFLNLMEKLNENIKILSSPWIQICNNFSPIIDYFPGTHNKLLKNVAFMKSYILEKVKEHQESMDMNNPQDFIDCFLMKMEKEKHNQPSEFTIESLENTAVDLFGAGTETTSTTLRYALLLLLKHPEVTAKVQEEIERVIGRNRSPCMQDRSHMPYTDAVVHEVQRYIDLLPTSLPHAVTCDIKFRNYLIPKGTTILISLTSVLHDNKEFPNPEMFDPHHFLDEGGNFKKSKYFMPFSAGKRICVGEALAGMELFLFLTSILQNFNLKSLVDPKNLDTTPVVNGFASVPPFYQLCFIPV

[11] = biological target: FAD-linked sulfhydryl oxidase ALR (Homo sapiens, UniProt P55789); experiment: ALR-catalysed DTT oxidation blockers – biochemical, H2O2 detection, luminescence, cherry-pick, dose response (AID 493248)
Chain of FAD-linked sulfhydryl oxidase ALR (P55789 whole entry): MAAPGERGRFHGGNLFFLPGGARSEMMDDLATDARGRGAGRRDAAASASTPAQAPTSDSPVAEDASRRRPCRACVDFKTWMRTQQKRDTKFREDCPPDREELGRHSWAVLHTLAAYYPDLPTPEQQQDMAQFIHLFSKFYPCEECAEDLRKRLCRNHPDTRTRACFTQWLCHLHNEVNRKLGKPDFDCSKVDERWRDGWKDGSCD

[12] = biological target: T2, Cytochrome P450 1A2 (Homo sapiens, UniProt P05177);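 also: PubChem cytochrome P450 panel assay, CYP1A2 panel member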
T2 sequence (P05177 whole entry): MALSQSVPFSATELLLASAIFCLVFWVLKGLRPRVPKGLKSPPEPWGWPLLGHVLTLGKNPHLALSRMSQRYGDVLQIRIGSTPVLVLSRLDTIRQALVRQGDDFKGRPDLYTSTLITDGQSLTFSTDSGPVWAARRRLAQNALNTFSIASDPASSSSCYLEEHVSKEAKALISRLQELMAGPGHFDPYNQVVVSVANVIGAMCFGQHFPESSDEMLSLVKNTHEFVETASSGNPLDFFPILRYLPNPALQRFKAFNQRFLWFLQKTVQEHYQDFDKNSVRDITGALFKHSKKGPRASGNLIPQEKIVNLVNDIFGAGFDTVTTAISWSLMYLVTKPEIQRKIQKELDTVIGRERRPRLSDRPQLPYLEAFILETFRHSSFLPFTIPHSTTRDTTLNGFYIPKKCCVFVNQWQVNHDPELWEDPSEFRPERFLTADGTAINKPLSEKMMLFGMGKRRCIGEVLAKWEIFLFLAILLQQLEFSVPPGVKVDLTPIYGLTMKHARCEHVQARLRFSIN

[13] = system: BJ; experiment: cells; type: functional, cell-based; conditions: Homo sapiens
[14] = non-specific 3'UTR reporter inhibition in Clone20-Shn3RL – cell-based, Renilla luciferase, cherry-picked, counter-screen for Shn3 inhibitor project, dose response (AID 624133); type: functional
[15] = MIN6 cell viability loss – mouse insulinoma, cytotoxicity control, dose response (AID 2122); type: functional;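 also: confirmatory high-throughput counterscreen run to flag cytotoxic compounds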
[16] = reduction of Shn3 3'UTR-driven luciferase in osteoblasts – cell-based, Clone20 osteoblasts, firefly luciferase, cherry-picked, dose response (AID 624132); type: functional;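 also: firefly luciferase luminescence from reporter carrying the Shn3 3'UTR in osteoblasts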
[17] = system: INS1; experiment: INS-1E survival protection against cytokine death – cell-based, luminescence, retest, dose response (AID 449756); type: functional; conditions: Rattus norvegicus;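 also: cell death triggered by IL-1 beta plus TNF-alpha plus IFN-gamma mixture; protective hits raise ATP signal compared with cytokine alone wells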
[18] = Trypanosoma cruzi growth suppression in host cells – NIH3T3 host cells, beta-gal luminescence, confirmation (AID 2044); type: functional, cell-based;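 also: intracellular parasites grown in NIH/3T3 mouse fibroblasts as host cells; luminescent beta-galactosidase reporter signal from transgenic T. cruzi replicating inside host cells; inhibitors lower the luminescence signal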
[19] = system: BJ; experiment: BJ-TERT fibroblast viability loss – cell-based, RAS-independent, luminescence, dose response (AID 1933); type: functional; conditions: Homo sapiens
[20] = general mammalian cell viability loss – inhibitor set, cherry-pick, set 2, cytotoxicity control for miR-122 modulator project, dose response (AID 720697); type: functional, cell-based
[21] = general mammalian cell viability loss – activator set, cherry-pick, cytotoxicity control for miR-122 modulator project, dose response (AID 720690); type: functional, cell-based;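 also: HEK293T human cells scored for general mammalian cytotoxicity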
[22] = cells; type: functional, cell-based
[23] = NIH3T3 cell viability loss – ATP luminescence, mouse fibroblasts, counter-screen, dose response (AID 2010); type: functional, cell-based;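 also: cells exposed to compound for about 90 hours before reading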
[24] = decrease of insulin promoter-GFP reporter – imaging, high-content screening, mouse beta cells (AID 1628); type: functional; conditions: MIN6
[25] = system: BJ; experiment: BJ-TERT-LT-ST fibroblast viability loss – cell-based, RAS-independent, luminescence, dose response (AID 1935); type: functional; conditions: Homo sapiens;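 also: BJ fibroblasts immortalized with TERT plus LT and ST oncogenes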
[26] = DRD fibroblast viability loss – cell-based, non-viral oncogenic, luminescence, dose response (AID 1934); type: functional; conditions: Homo sapiens
[27] = loss of viability in HepG2 cells – cell-based, CellTiter-Glo, cherry-picked, cytotoxicity control for Shn3 inhibitor project, dose response (AID 624134); type: functional
[28] = cells; type: functional, cell-based; remark: listed apart in the source

O=C1CN(C(=O)COC(=O)COc2ccc3c(c2)CCC3)c2ccccc2N1
AC50 [1]: 48.6 µM (active)

COc1ccc(C(=O)c2sc(Nc3ccccc3F)nc2N)cc1
AC50 [2]: 3.41 µM (active)
AC50 [3]: 1.63 µM (active)

CC(=O)Nc1ccc(CN2CCCC(C(=O)c3cccc(C(F)(F)F)c3)C2)cc1 (stereo not drawn)
EC50 [4]: > 92.5 µM (inactive)
EC50 [5]: 1.68 µM (active)
EC50 [6]: > 92.5 µM (inactive)
EC50 [7]: 39.4 µM (inactive)

Cn1c(-c2ccc(F)cc2)cnc1NCc1ccc(F)cc1
IC50 [8]: 4.28 µM (active)
EC50 [9]: 0.749 µM (active)
AC50 [10]: 20 µM (inconclusive)
AC50 [11]: 4.7 µM (active)
AC50 [12]: 8.91 µM (inconclusive)

Cc1ccc(Nc2c(-c3ccccn3)nc3cc(C)ccn23)cc1
EC50 [13]: 12.2 µM (active)
AC50 [14]: 61.3 µM (active)
IC50 [15]: 0.61 µM (active)
AC50 [16]: 1.36 µM (active)
AC50 [17]: 4.81 µM (active)
EC50 [18]: 0.951 µM (active)
EC50 [19]: 7.37 µM (active)
AC50 [20]: 5.48 µM (active)
AC50 [21]: 15.5 µM (active)
EC50 [22]: 49.3 µM (active)
EC50 [23]: 4.56 µM (active)
IC50 [24]: 1.7 µM (active)
EC50 [25]: 7.83 µM (inconclusive)
EC50 [26]: 13.2 µM (active)
AC50 [27]: 4.06 µM (active)
EC50 [28]: 4.69 µM (active)
